{"source": "patent US11040038B2", "about": "“Methods for treating diseases associated with abnormal ACVR1 expression and ACVR1 inhibitors for use in the same” (Sumitomo Dainippon Pharma Oncology, Inc., priority 2018, dated 2021)", "key": {"ACVR1 G328V": {"target": "T1, ACVR1 G328V (Homo sapiens, UniProt Q04771, G328V)", "T1 sequence (Q04771 21-509 G328V)": "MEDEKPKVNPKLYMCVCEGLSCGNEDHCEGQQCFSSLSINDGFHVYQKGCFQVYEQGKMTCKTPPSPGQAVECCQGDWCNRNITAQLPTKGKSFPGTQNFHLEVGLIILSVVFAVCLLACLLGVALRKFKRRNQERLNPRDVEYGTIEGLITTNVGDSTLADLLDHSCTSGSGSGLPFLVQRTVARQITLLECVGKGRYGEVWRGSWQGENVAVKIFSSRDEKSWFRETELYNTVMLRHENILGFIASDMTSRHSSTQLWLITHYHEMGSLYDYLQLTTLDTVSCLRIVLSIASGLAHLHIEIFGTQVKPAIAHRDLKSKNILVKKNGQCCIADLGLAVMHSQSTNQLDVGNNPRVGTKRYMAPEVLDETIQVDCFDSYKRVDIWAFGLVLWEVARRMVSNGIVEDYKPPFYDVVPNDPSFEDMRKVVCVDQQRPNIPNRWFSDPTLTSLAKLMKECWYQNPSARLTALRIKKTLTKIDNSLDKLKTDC", "test": "ACVR1 kinase assay, casein substrate, 33P-ATP, filter binding", "format": "biochemical", "conditions": "10 μM ATP", "procedure": "In brief, casein-based substrates were prepared. The respective ACVR1 kinase was added to the substrate mixture and hot/cold 33P-ATP (10 μM) was added to initiate the reaction. The activity was then measured with a filter binding method.\nThe IC50 values against the kinases are listed below in Table 3."}, "[1]": {"test": "IV and PO plasma pharmacokinetics in rats", "format": "in vivo", "conditions": "Sprague-Dawley, rat, fasted female SD rats", "procedure": "Pharmacokinetic and toxicology of Compound 2 were tested in rats. The intravenous (IV) and oral (PO) pharmacokinetics of Compound 2 were determined in plasma in fasted female Sprague-Dawley (SD) rats. The formulation used was 20% solutol and 80% saline for both administration routes. The nominal dose was 2 mg/kg (IV) and 20 mg/kg (PO). Samples were taken at 8 time points and the drug concentrations were determined by LC-MS/MS."}}, "data": [{"smiles": "COc1cc(Nc2nccc(Nc3cccnc3-c3ccccn3)n2)ccc1N1CCN(C)CC1", "note": "[Compound 2, N^4-(2,2′-bipyridin-3-yl)-N^2-(3-methoxy-4-(4-methylpiperazin-1-yl)phenyl)pyrimidine-2,4-diamine]", "values": [{"measurement": "IC50", "setting": "ACVR1 G328V", "value": 13.8, "unit": "nM"}, {"measurement": "AUC", "setting": "[1]; 20 mg/kg PO", "value": 2520, "unit": "ng·h/mL"}, {"measurement": "Cmax", "setting": "[1]; 20 mg/kg PO", "value": 159, "unit": "ng/mL"}, {"measurement": "Tmax", "setting": "[1]; 20 mg/kg PO", "value": 5.33, "unit": "h"}, {"measurement": "half-life", "setting": "[1]; 20 mg/kg PO", "value": 6.58, "unit": "h"}, {"measurement": "bioavailability", "setting": "[1]; 20 mg/kg PO vs 2 mg/kg IV, read-out: Oral Bioavailability (% F)", "value": 60.8, "unit": "%"}]}]}
